24 molecules from ChEMBL document CHEMBL1201862, “PubChem BioAssay data set” (2004) can be followed below.

SMILES strings stand for the structures.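 Compound exposure: 48 hours, 5 concentrations, 96-well plates. GI50 = concentration required for 50% inhibition of growth.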 Active and inactive are the calls of the source. No stated cut-off is given here; in the data, active = GI50 up to about 1.1 µM and inactive = higher. Where only a bound is given, the exact number is not on record here.

Some test systems named below: SNB-78; RXF 631; XF498; DMS-114; DLD-1; M19-MEL; LXFL 529; DMS-273; HOP-18.
Common to all, as to experiment: NCI anticancer screen, dose series, 48 h

On to `O=C(c1ccccc1)C(c1ccccc1)C1(O)C(=O)Nc2ccc([N+](=O)[O-])cc21` (stereo unspecified), for which the GI50 in the test on SNB-78 is > 100 µM (inactive); with RXF 631, > 100 µM (inactive); in the test on XF498 it was > 100 µM (inactive); in the test on DMS-114 it was 19.8 µM (inactive); in the test with DLD-1 it was > 100 µM (inactive); in the test on M19-MEL it was 26.9 µM (inactive). Also, the GI50 in the test on LXFL 529 was 32.9 µM (inactive).
`COc1cc2c(c(OC)c1OC)-c1ccc(SC)c(=O)cc1[C@@H](NCc1ccccc1[N+](=O)[O-])CC2`: the GI50 is 0.00682 µM (active) in the test with SNB-78; 0.01 µM (active) with RXF 631; 0.0176 µM (active) in the test on XF498; 0.004 µM (active) in the test on DMS-273; 0.00796 µM (active) with DMS-114; 0.00762 µM (active) in the test on DLD-1. Moreover, the GI50 with M19-MEL was 0.004 µM (active); with LXFL 529 it was 0.0128 µM (active).
With `O=[N+]([O-])c1cc(C(F)(F)F)cc([N+](=O)[O-])c1CCl`, the GI50 in the test with SNB-78 is 4.69 µM (inactive); with RXF 631 it was 2.8 µM (inactive); in the test with HOP-18, 1.93 µM (inactive); in the test on XF498 it was 8.97 µM (inactive); with DMS-273, 1.23 µM (inactive); with DMS-114, 0.52 µM (active). For the same molecule, the GI50 with DLD-1 was 1.83 µM (inactive); in the test on M19-MEL, 1.57 µM (inactive); in the test on LXFL 529 it was 0.228 µM (active).
In the case of `O=C1OC(CC(=O)c2ccc(F)cc2)C(Cl)=C1Cl` (stereo unspecified), the GI50 in the test with SNB-78 is 37.9 µM (inactive); with HOP-18, 17.9 µM (inactive); in the test with XF498 it was 26.7 µM (inactive); with DMS-114, 40.3 µM (inactive); in the test on DLD-1, 21.6 µM (inactive); in the test on M19-MEL, 73.3 µM (inactive). In addition, the GI50 in the test with LXFL 529 is 18 µM (inactive).
Consider `COc1cccc(NC(=O)C(C)(C)C)c1C=O`, for which the GI50 in the test with SNB-78 was 51.2 µM (inactive); in the test with RXF 631, 81.3 µM (inactive); in the test with HOP-18, 91 µM (inactive); in the test on XF498, 7.38 µM (inactive); in the test with DMS-114 it was 34.6 µM (inactive); in the test on DLD-1, 51.9 µM (inactive). For the same molecule, the GI50 was 59.3 µM (inactive) in the test on M19-MEL and 33.7 µM (inactive) with LXFL 529.
On to `COC(OC)C(C)CC(=O)N(C)C` (stereo unspecified), for which the GI50 with SNB-78, in the test with XF498, in the test with DMS-273, with DMS-114, in the test on DLD-1 and with M19-MEL was > 100 µM (inactive) throughout. In the test with LXFL 529, the GI50 was > 100 µM (inactive).
Regarding `O=C(/C=C/c1ccc(OCCCOc2ccc(/C=C/C(=O)c3ccc(Cl)cc3)cc2)cc1)c1ccc(Cl)cc1`, the GI50 in the test with SNB-78 is > 100 µM (inactive); in the test on HOP-18, 5.42 µM (inactive); in the test on XF498, > 100 µM (inactive); with DMS-273 it was > 100 µM (inactive); in the test on DMS-114, > 100 µM (inactive); in the test on DLD-1, > 100 µM (inactive). In addition, the GI50 in the test on M19-MEL and in the test with LXFL 529 was > 100 µM (inactive) in each case.
`[N-]=[N+]=N/C1=C/CCCCC(=O)C1`: the GI50 with SNB-78, with XF498, with DMS-273, in the test with DMS-114, in the test with DLD-1 and in the test on M19-MEL was > 100 µM (inactive) throughout. Also, in the test with LXFL 529, the GI50 is > 100 µM (inactive).
`O=C(CC(C(=O)c1ccsc1)c1cccs1)c1cccs1` (stereo unspecified): the GI50 in the test on SNB-78 is > 100 µM (inactive); in the test on XF498, 70.1 µM (inactive); in the test on DMS-273, 84.5 µM (inactive); in the test with DMS-114, 41.9 µM (inactive); with DLD-1, > 100 µM (inactive); in the test on M19-MEL it was 96.2 µM (inactive). Also, in the test with LXFL 529, the GI50 is 38.5 µM (inactive).
In the case of `[O-][n+]1c2cc3c(cc2[n+]([O-])c2c(O)cccc21)CN(CCN1CCOCC1)C3`, the GI50 is 32.4 µM (inactive) in the test on SNB-78; > 100 µM (inactive) in the test with RXF 631; > 100 µM (inactive) with HOP-18; 12.5 µM (inactive) with XF498; 53.6 µM (inactive) in the test with DMS-273; 8.41 µM (inactive) with DMS-114. Further, the GI50 is 14.5 µM (inactive) in the test on M19-MEL and 14.1 µM (inactive) in the test on LXFL 529.
As to `CC1CCC2(OC1)OC1CC3C4CCC5CC(O)CCC5(C)C4CC(=O)OC3(C)C1C2C` (stereo unspecified), the GI50 with SNB-78, with HOP-18, in the test with DMS-273, with DMS-114, in the test on DLD-1 and in the test on M19-MEL was > 100 µM (inactive) throughout. Besides, the GI50 in the test with LXFL 529 was > 100 µM (inactive).
On to `COc1cccc(NC(=O)C(=O)C2C=CCS2(=O)=O)c1` (stereo unspecified), for which the GI50 in the test with HOP-18, in the test on XF498, in the test on DMS-114, in the test with DLD-1, in the test on M19-MEL and in the test on LXFL 529 was > 100 µM (inactive) in each case.
With `COC(=O)C12C3C4C1C1C2C3C41C(=O)N(C(C)C)C(C)C` (stereo unspecified), the GI50 in the test on SNB-78, with DMS-273, in the test on DMS-114, with DLD-1, in the test with M19-MEL and with LXFL 529 was > 100 µM (inactive) each time.
With `CC1=CC(=O)N(c2c(C)cccc2Cl)C(C)N1` (stereo unspecified), the GI50 with SNB-78, in the test with RXF 631, in the test on HOP-18, with DMS-273, in the test with DMS-114 and in the test with DLD-1 was > 100 µM (inactive) throughout. For the same molecule, the GI50 in the test with M19-MEL and in the test with LXFL 529 was > 100 µM (inactive) each time.
With `O=C(Nc1cc(Cl)c(Cl)cc1Cl)C(=O)C1C(=O)NC(=S)NC1=O`, the GI50 with SNB-78, with RXF 631, in the test with HOP-18, in the test on XF498, with DMS-273 and in the test with DMS-114 was > 100 µM (inactive) in each case. For the same molecule, the GI50 in the test on DLD-1, with M19-MEL and with LXFL 529 was > 100 µM (inactive) in each case.
Consider `C#CCNC(=O)NCCCCC(NC(=O)OCc1ccccc1)C(=O)OCc1ccccc1` (stereo unspecified), for which the GI50 is > 80.9 µM (inactive) in the test with SNB-78; > 58.5 µM (inactive) in the test with RXF 631; > 100 µM (inactive) in the test on HOP-18; 18.5 µM (inactive) in the test on XF498; > 71.3 µM (inactive) in the test on DMS-273; 27.7 µM (inactive) in the test with DMS-114. Also, the figures for the GI50 in the test on DLD-1, with M19-MEL and with LXFL 529 were 49 µM (inactive), 38.7 µM (inactive) and 40.3 µM (inactive), respectively.
Take `COC(=O)/C=C(C)/C=C/c1c(C)c(C(C)=O)c(C)n1C`: the GI50 in the test with SNB-78, in the test with RXF 631, with HOP-18, in the test on XF498, in the test on DMS-273 and with DLD-1 was > 100 µM (inactive) in each case. In addition, the GI50 with M19-MEL is > 100 µM (inactive); in the test on LXFL 529 it was 88.3 µM (inactive).
Regarding `O=C(/C=C1\Nc2ccccc2C(=O)N1c1ccccc1Cl)c1ccccc1`, the GI50 in the test with SNB-78 was > 100 µM (inactive); in the test with RXF 631, > 100 µM (inactive); with HOP-18, > 100 µM (inactive); in the test on DMS-273, > 100 µM (inactive); in the test with DMS-114, 86.3 µM (inactive); in the test with DLD-1 it was > 100 µM (inactive). The GI50 in the test with M19-MEL and with LXFL 529 was > 100 µM (inactive) throughout.
With `CCOC(=O)C1C=C2O[C@@H]3OC4(CCCCC4)O[C@@H]3C2C2C(=O)CCC(=O)[C@@]12C(=O)OC` (stereo partly specified), the GI50 with SNB-78, with RXF 631, in the test with HOP-18, in the test with XF498, with DMS-273 and in the test on DMS-114 was > 100 µM (inactive) throughout. Also, the GI50 in the test with DLD-1, in the test with M19-MEL and with LXFL 529 was > 100 µM (inactive) throughout.
`CCNc1nc2c(=O)n(C)c(=O)n(C)c2s1`: the GI50 in the test on SNB-78, with HOP-18, with XF498, in the test on DLD-1, in the test with M19-MEL and in the test with LXFL 529 was > 100 µM (inactive) in each case.
For the molecule `C=C1C=CC2(Br)OC3CC(C)(Cl)C(Br)CC13C2(C)C` (stereo unspecified), the GI50 in the test with SNB-78 is 22.4 µM (inactive); with RXF 631, 23 µM (inactive); in the test on XF498, 13.3 µM (inactive); in the test on DMS-273, 35.8 µM (inactive); with DMS-114, 17.2 µM (inactive); with DLD-1, 31.6 µM (inactive). Moreover, the GI50 in the test with M19-MEL was 21.5 µM (inactive); with LXFL 529 it was 22.5 µM (inactive).
Take `Cc1ccc(C)c(NC(=O)/C(=N\NC(N)=S)C(C#N)c2ccccc2)c1` (stereo unspecified): the GI50 in the test with HOP-18, with XF498, with DMS-273, in the test on DMS-114, in the test on DLD-1 and with M19-MEL was > 100 µM (inactive) in each case. The GI50 in the test with LXFL 529 was > 100 µM (inactive).
For the molecule `COc1cc(C(O)C(=O)c2nc3ccc([N+](=O)[O-])cc3nc2O)ccc1O` (stereo unspecified), the GI50 in the test with SNB-78 is > 100 µM (inactive); with XF498, > 100 µM (inactive); with DMS-273 it was 83.9 µM (inactive); in the test on DMS-114, 66.8 µM (inactive); with DLD-1 it was > 100 µM (inactive); in the test with M19-MEL, > 100 µM (inactive). Further, the GI50 in the test with LXFL 529 is 35.8 µM (inactive).
As for `O=C1NC2(CCCCC2)C(=O)N1CCN(CCCl)CCCl` [SPIROMUSTINE], the GI50 in the test with SNB-78 is 148 µM (inactive); in the test with HOP-18 it was 236 µM (inactive); in the test on XF498, 28.8 µM (inactive); in the test on DMS-273 it was 71.6 µM (inactive); in the test with DMS-114, 88.7 µM (inactive); with DLD-1, 164 µM (inactive). Also, in the test with M19-MEL, the GI50 is 228 µM (inactive).
